Values joined by “and” are separate entries in the source; they are usually repeats but may differ in a detail not shown here. Identical values can stand only once. Like-named read-outs stand apart in the source and are kept apart here.
What was measured:
[1] = test system: halofuginone-induced P. falciparum (elevated proline homeostasis); test: P. falciparum ABS growth assay, SYBR Green, 72 h, halofuginone-induced parasites; format: cell-based, Plasmodium falciparum; settings: for parasite growth, dose-response point: Halofuginone-Induced (HFG-Induced), single replicates
Procedure, shortened: (§1)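 EC50 came from SYBR Green 1 fluorescence measured 72 h after dosing in triplicate dose-response. Dihydroartemisinin at 10 μM set full kill and untreated wells set full growth. Cultures of the Dd2 lines were seeded at 1% hematocrit and 1% parasitemia in Albumax-supplemented RPMI.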

[2] = test system: HFGR-I P. falciparum (elevated proline homeostasis and PfcProRS^L482H); test: P. falciparum ABS growth assay, SYBR Green, 72 h, HFGR-I parasites; format: cell-based, Plasmodium falciparum; settings: HFGR-I, single replicates
Procedure, shortened: as §1

HsProRS = HsProRS (Homo sapiens, UniProt P07814); test: TR-FRET ligand displacement assay with tracer MAT379 (CoraFluor-1-Halo and anti-His6 antibody formats); format: binding; design: made in house; host or cells: E. coli SoluBL-21; settings: for TR-FRET dose-response, normalized signal (SI Fig 11): individual replicates
Chain of HsProRS (P07814 996-1512): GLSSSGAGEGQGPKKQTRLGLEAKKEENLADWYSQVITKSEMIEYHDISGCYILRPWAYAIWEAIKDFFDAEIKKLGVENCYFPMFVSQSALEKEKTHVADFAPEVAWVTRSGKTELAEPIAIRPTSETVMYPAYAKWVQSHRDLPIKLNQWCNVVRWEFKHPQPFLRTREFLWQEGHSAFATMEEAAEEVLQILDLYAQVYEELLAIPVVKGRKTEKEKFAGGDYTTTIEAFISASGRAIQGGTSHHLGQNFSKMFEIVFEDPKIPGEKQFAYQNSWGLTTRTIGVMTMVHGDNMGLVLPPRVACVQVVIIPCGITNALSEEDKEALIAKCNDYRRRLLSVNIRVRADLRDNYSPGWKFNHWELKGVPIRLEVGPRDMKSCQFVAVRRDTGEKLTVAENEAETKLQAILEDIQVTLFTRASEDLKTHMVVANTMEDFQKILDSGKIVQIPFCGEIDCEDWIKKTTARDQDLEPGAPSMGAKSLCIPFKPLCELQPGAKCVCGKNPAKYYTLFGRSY

PfcProRS = molecular target: T1, PfcProRS (Plasmodium falciparum, UniProt Q8I5R7); format: binding; settings: for dose-response signal (normalized), SI Fig 8: single replicates
T1 construct: made in house; host or cells: E. coli SoluBL-21
T1 sequence (Q8I5R7 249-746): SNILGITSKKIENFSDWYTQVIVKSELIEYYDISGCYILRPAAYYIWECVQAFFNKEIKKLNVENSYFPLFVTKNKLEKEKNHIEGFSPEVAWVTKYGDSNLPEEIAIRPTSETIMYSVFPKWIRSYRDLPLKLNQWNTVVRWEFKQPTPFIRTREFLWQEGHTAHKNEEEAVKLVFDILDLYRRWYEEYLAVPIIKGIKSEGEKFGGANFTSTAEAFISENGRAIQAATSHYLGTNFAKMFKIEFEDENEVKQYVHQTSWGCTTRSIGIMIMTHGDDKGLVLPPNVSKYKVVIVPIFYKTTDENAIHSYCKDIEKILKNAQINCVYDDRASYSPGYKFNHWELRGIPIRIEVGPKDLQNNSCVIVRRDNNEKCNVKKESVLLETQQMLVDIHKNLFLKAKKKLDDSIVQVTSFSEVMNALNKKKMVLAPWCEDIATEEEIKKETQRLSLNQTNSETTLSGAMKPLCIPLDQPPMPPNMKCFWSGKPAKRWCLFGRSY

P. falciparum Dd2-2D4 = test: P. falciparum asexual blood stage (ABS) growth assay, SYBR Green, 72 h, wild-type parasites; format: cell-based, Plasmodium falciparum; settings: for ABS growth dose-response, normalized signal (Replicates 1-3) / parasite growth, dose-response point: Dd2-2D4; for parasite growth, dose-response point: single replicates

CC1(C(=O)Nc2nccnc2C(=O)NC2Cc3ccccc3C2)CCCCC1 [compound 4]
parasite growth, dose-response point ([1]; Log[inhibitor] (M) -5): 1 | parasite growth, dose-response point ([1]; Log[inhibitor] (M) -5.408): 1 | parasite growth, dose-response point ([1]; Log[inhibitor] (M) -5.816): 0 (2×) and 1 | parasite growth, dose-response point ([1]; Log[inhibitor] (M) -6.222): 16 and 18 and 17 | parasite growth, dose-response point ([1]; Log[inhibitor] (M) -6.638): 99 (2×) and 106 | parasite growth, dose-response point ([1]; Log[inhibitor] (M) -7.046): 103 (2×) and 109 | parasite growth, dose-response point ([1]; Log[inhibitor] (M) -7.45): 100 and 97 | parasite growth, dose-response point ([1]; Log[inhibitor] (M) -7.854): 100 (2×) and 97 | parasite growth, dose-response point ([1]; Log[inhibitor] (M) -8.26): 101 and 95 and 97 | parasite growth, dose-response point ([1]; Log[inhibitor] (M) -8.699): 99 and 98 (2×) | parasite growth, dose-response point ([1]; Log[inhibitor] (M) -9): 96 (2×) and 97 | parasite growth, dose-response point ([1]; Log[inhibitor] (M) -9.488): 98 and 95 and 102 | dose-response value, Replicates 1-3 (SI Fig 2e) ([1]; Log[inhibitor] (M) -5.000): 1 | dose-response value, Replicates 1-3 (SI Fig 2e) ([1]; Log[inhibitor] (M) -5.408): 1 | parasite growth, dose-response point ([2]; Log[inhibitor] (M) -5): 6 and 7 (2×) | parasite growth, dose-response point ([2]; Log[inhibitor] (M) -5.408): 7 (2×) and 6 | parasite growth, dose-response point ([2]; Log[inhibitor] (M) -5.816): 6 (2×) and 7 | parasite growth, dose-response point ([2]; Log[inhibitor] (M) -6.222): 10 (2×) and 9 | parasite growth, dose-response point ([2]; Log[inhibitor] (M) -6.638): 75 and 76 and 81 | parasite growth, dose-response point ([2]; Log[inhibitor] (M) -7.046): 99 and 105 and 110 | parasite growth, dose-response point ([2]; Log[inhibitor] (M) -7.45): 87 and 99 and 100 | parasite growth, dose-response point ([2]; Log[inhibitor] (M) -7.854): 99 and 98 and 103 | parasite growth, dose-response point ([2]; Log[inhibitor] (M) -8.26): 100 and 101 and 104 | parasite growth, dose-response point ([2]; Log[inhibitor] (M) -8.699): 98 and 99 and 104 | parasite growth, dose-response point ([2]; Log[inhibitor] (M) -9): 101 and 97 and 100 | parasite growth, dose-response point ([2]; Log[inhibitor] (M) -9.488): 89 and 96 and 93 | Kd (HsProRS; HsProRS (KD [nM]) −, absence of substrates, 250 nM MAT379): 221 nM | Kd (HsProRS; HsProRS - best Kd, SI Fig 16a, values on -log scale): 2.55 nM | normalized TR-FRET ligand displacement signal, dose-response replicates (SI Fig 6) (HsProRS; Log[inhibitor] (M) -5.000): 4.53E-02 and 6.57E-02 and 9.85E-02 | TR-FRET dose-response, normalized signal (SI Fig 11) (HsProRS; Log[inhibitor] (M) -5.000): 6.99E-03 and -1.87E-02 and 8.97E-03 | normalized TR-FRET ligand displacement signal, dose-response replicates (SI Fig 6) (HsProRS; Log[inhibitor] (M) -5.301): 8.38E-02 and 1.09E-01 and 1.45E-01 | TR-FRET dose-response, normalized signal (SI Fig 11) (HsProRS; Log[inhibitor] (M) -5.301): 5.00E-02 and 2.79E-02 and 4.24E-02 | normalized TR-FRET ligand displacement signal, dose-response replicates (SI Fig 6) (HsProRS; Log[inhibitor] (M) -5.601): 2.80E-01 and 1.33E-01 and 2.62E-01 | TR-FRET dose-response, normalized signal (SI Fig 11) (HsProRS; Log[inhibitor] (M) -5.601): 1.01E-01 and 8.93E-02 and 1.03E-01 | normalized TR-FRET ligand displacement signal, dose-response replicates (SI Fig 6) (HsProRS; Log[inhibitor] (M) -5.904): 4.58E-01 and 3.89E-01 and 4.73E-01 | TR-FRET dose-response, normalized signal (SI Fig 11) (HsProRS; Log[inhibitor] (M) -5.904): 1.64E-01 and 2.16E-01 and 1.95E-01 | normalized TR-FRET ligand displacement signal, dose-response replicates (SI Fig 6) (HsProRS; Log[inhibitor] (M) -6.208): 6.24E-01 and 6.52E-01 and 5.78E-01 | TR-FRET dose-response, normalized signal (SI Fig 11) (HsProRS; Log[inhibitor] (M) -6.208): 2.83E-01 and 3.32E-01 and 2.85E-01 | normalized TR-FRET ligand displacement signal, dose-response replicates (SI Fig 6) (HsProRS; Log[inhibitor] (M) -6.509): 8.00E-01 and 8.38E-01 and 8.01E-01 | TR-FRET dose-response, normalized signal (SI Fig 11) (HsProRS; Log[inhibitor] (M) -6.509): 4.57E-01 and 4.64E-01 and 4.80E-01 | normalized TR-FRET ligand displacement signal, dose-response replicates (SI Fig 6) (HsProRS; Log[inhibitor] (M) -6.796): 9.06E-01 and 8.75E-01 and 9.05E-01 | TR-FRET dose-response, normalized signal (SI Fig 11) (HsProRS; Log[inhibitor] (M) -6.796): 6.22E-01 and 6.48E-01 and 6.15E-01 | normalized TR-FRET ligand displacement signal, dose-response replicates (SI Fig 6) (HsProRS; Log[inhibitor] (M) -7.108): 9.19E-01 and 1.02E+00 and 8.47E-01 | TR-FRET dose-response, normalized signal (SI Fig 11) (HsProRS; Log[inhibitor] (M) -7.108): 7.25E-01 and 7.35E-01 and 7.08E-01 | normalized TR-FRET ligand displacement signal, dose-response replicates (SI Fig 6) (HsProRS; Log[inhibitor] (M) -7.409): 8.93E-01 and 1.05E+00 and 9.99E-01 | TR-FRET dose-response, normalized signal (SI Fig 11) (HsProRS; Log[inhibitor] (M) -7.409): 8.57E-01 and 8.69E-01 and 8.79E-01 | normalized TR-FRET ligand displacement signal, dose-response replicates (SI Fig 6) (HsProRS; Log[inhibitor] (M) -7.710): 9.69E-01 (2×) and 9.96E-01 | TR-FRET dose-response, normalized signal (SI Fig 11) (HsProRS; Log[inhibitor] (M) -7.710): 9.21E-01 and 9.18E-01 and 9.07E-01 | normalized TR-FRET ligand displacement signal, dose-response replicates (SI Fig 6) (HsProRS; Log[inhibitor] (M) -8.000): 1.02E+00 and 9.51E-01 and 1.08E+00 | TR-FRET dose-response, normalized signal (SI Fig 11) (HsProRS; Log[inhibitor] (M) -8.000): 9.42E-01 and 9.60E-01 and 9.15E-01 | normalized TR-FRET ligand displacement signal, dose-response replicates (SI Fig 6) (HsProRS; Log[inhibitor] (M) -8.301): 8.99E-01 and 1.00E+00 and 9.75E-01 | TR-FRET dose-response, normalized signal (SI Fig 11) (HsProRS; Log[inhibitor] (M) -8.301): 9.32E-01 and 9.20E-01 and 9.46E-01 | normalized TR-FRET ligand displacement signal, dose-response replicates (SI Fig 6) (HsProRS; Log[inhibitor] (M) -8.602): 9.54E-01 and 1.01E+00 and 9.27E-01 | TR-FRET dose-response, normalized signal (SI Fig 11) (HsProRS; Log[inhibitor] (M) -8.602): 9.70E-01 and 9.45E-01 and 9.16E-01 | normalized TR-FRET ligand displacement signal, dose-response replicates (SI Fig 6) (HsProRS; Log[inhibitor] (M) -9.000): 9.66E-01 and 9.16E-01 and 8.85E-01 | TR-FRET dose-response, normalized signal (SI Fig 11) (HsProRS; Log[inhibitor] (M) -9.000): 9.54E-01 and 9.83E-01 and 9.88E-01 | normalized TR-FRET ligand displacement signal, dose-response replicates (SI Fig 6) (HsProRS; Log[inhibitor] (M) -9.301): 1.02E+00 (2×) and 1.01E+00 | TR-FRET dose-response, normalized signal (SI Fig 11) (HsProRS; Log[inhibitor] (M) -9.301): 9.40E-01 and 9.47E-01 and 9.44E-01 | dose-response signal (normalized), SI Fig 8 (PfcProRS; Log[inhibitor] (M) -5.000): 4.05E-02 and -1.19E-01 and -1.91E-02 | dose-response signal (normalized), SI Fig 8 (PfcProRS; Log[inhibitor] (M) -5.301): -7.53E-02 and -2.32E-02 and 3.73E-02 | dose-response signal (normalized), SI Fig 8 (PfcProRS; Log[inhibitor] (M) -5.601): -7.78E-02 and -2.66E-03 and -2.25E-02 | dose-response signal (normalized), SI Fig 8 (PfcProRS; Log[inhibitor] (M) -5.904): 1.67E-02 and 2.48E-02 and 1.76E-02 | dose-response signal (normalized), SI Fig 8 (PfcProRS; Log[inhibitor] (M) -6.208): 8.20E-02 and 4.30E-02 and 6.02E-02 | dose-response signal (normalized), SI Fig 8 (PfcProRS; Log[inhibitor] (M) -6.509): 7.49E-03 and -2.38E-02 and -1.11E-02 | dose-response signal (normalized), SI Fig 8 (PfcProRS; Log[inhibitor] (M) -6.796): 4.86E-02 and 3.80E-02 and -1.10E-02 | dose-response signal (normalized), SI Fig 8 (PfcProRS; Log[inhibitor] (M) -7.108): 4.17E-02 and 7.57E-02 and 3.79E-02 | dose-response signal (normalized), SI Fig 8 (PfcProRS; Log[inhibitor] (M) -7.409): 2.11E-01 and 1.42E-01 and 1.90E-01 | dose-response signal (normalized), SI Fig 8 (PfcProRS; Log[inhibitor] (M) -7.710): 4.47E-01 and 2.93E-01 and 4.00E-01 | dose-response signal (normalized), SI Fig 8 (PfcProRS; Log[inhibitor] (M) -8.000): 7.09E-01 and 7.29E-01 and 6.69E-01 | dose-response signal (normalized), SI Fig 8 (PfcProRS; Log[inhibitor] (M) -8.301): 8.70E-01 and 9.23E-01 and 9.80E-01 | dose-response signal (normalized), SI Fig 8 (PfcProRS; Log[inhibitor] (M) -8.602): 1.09E+00 and 9.73E-01 and 1.05E+00 | dose-response signal (normalized), SI Fig 8 (PfcProRS; Log[inhibitor] (M) -9.000): 9.29E-01 and 9.06E-01 and 9.66E-01 | dose-response signal (normalized), SI Fig 8 (PfcProRS; Log[inhibitor] (M) -9.301): 8.49E-01 and 1.04E+00 and 9.72E-01 | PfcProRS -- best Kd (PfcProRS; SI Fig 16a, values on -log scale): 8.466 | ABS growth dose-response, normalized signal (Replicates 1-3) (P. falciparum Dd2-2D4; Log[inhibitor] (M) -5.000): 0 | parasite growth, dose-response point (P. falciparum Dd2-2D4; Log[inhibitor] (M) -5.000): 0 | ABS growth dose-response, normalized signal (Replicates 1-3) (P. falciparum Dd2-2D4; Log[inhibitor] (M) -5.301): 0 | parasite growth, dose-response point (P. falciparum Dd2-2D4; Log[inhibitor] (M) -5.301): 0 | ABS growth dose-response, normalized signal (Replicates 1-3) (P. falciparum Dd2-2D4; Log[inhibitor] (M) -5.602): 0 | parasite growth, dose-response point (P. falciparum Dd2-2D4; Log[inhibitor] (M) -5.602): 0 | ABS growth dose-response, normalized signal (Replicates 1-3) (P. falciparum Dd2-2D4; Log[inhibitor] (M) -6.505): 8 | parasite growth, dose-response point (P. falciparum Dd2-2D4; Log[inhibitor] (M) -6.505): 8 | EC50 (P. falciparum Dd2-2D4; Plasmodium falciparum, DD2, SI Fig 16b, values on -log scale, read-out: ABS - Dd2-2D4 (converted)): 0.18 µM

— paper PMC9403976, “Elucidating the path to Plasmodium prolyl-tRNA synthetase inhibitors that overcome halofuginone resistance” (Nature Communications, 2022)
